Structures can show the parent of a compound that is named as a salt. Where two headings read alike, the source gives them in different places.
What was measured:
[1] = target: T1, human NTCP (Homo sapiens, UniProt Q14973); assay: Screening fluorescent competitive Myrcludex B-FITC binding assay (96-well, 10 µM drug)
T1 sequence (Q14973 1-349): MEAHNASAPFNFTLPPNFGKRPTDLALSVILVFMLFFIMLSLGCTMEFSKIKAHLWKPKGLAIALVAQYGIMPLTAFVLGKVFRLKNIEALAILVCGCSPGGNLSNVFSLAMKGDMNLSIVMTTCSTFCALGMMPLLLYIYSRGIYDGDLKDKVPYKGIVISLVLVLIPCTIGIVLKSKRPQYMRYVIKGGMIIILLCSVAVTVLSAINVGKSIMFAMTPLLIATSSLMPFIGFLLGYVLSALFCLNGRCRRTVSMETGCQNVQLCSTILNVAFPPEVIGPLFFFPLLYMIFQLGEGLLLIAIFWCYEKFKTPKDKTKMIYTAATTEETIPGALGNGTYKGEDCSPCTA

[2] = target: T1, human NTCP; assay: Screening taurocholate uptake assay (96-well, [14C]taurocholate, 10 µM drug)
[3] = Prestwick library screen, Myrcludex B-FITC binding, 10 µM drug
[4] = Prestwick library screen, taurocholate uptake, 10 µM drug
[5] = ranking score beside the functional and binding assay B-scores of the screen
[6] = screen, 10 µM drug, Myrcludex B-FITC binding
[7] = combined ranking from functional and binding screening assays
[8] = screen, 10 µM drug, taurocholate uptake
[9] = Prestwick library screen, 10 µM drug, B-score of Myrcludex B-FITC binding
[10] = Prestwick library screen, 10 µM drug, B-score of taurocholate uptake
[11] = combined ranking from functional and binding assay B-scores

Nc1nnc(-c2cccc(Cl)c2Cl)c(N)n1 [Lamotrigine]
B-score binding assay [1, 3]: 0.084
B-score functional assay [2, 4]: 0.153
Ranking score [2, 5]: 756.135

C[C@H](CS)C(=O)N1CCC[C@H]1C(=O)O [Captopril]
B-score binding assay [1, 3]: 0.648
Ranking score [2, 5]: 728.08

CC(=O)Oc1cc(C(C)C)c(OCCN(C)C)cc1C.Cl [Moxisylyte hydrochoride]
B-score binding assay [1, 6]: -0.183
Ranking score [2, 7]: 375.319
B-score functional assay [2, 8]: -0.84

C[C@H]1O[C@@H](O[C@H]2[C@@H](O)C[C@H](O[C@H]3[C@@H](O)C[C@H](O[C@H]4CC[C@@]5(C)[C@H](CC[C@@H]6[C@@H]5C[C@@H](O)[C@]5(C)[C@@H](C7=CC(=O)OC7)CC[C@]65O)C4)O[C@@H]3C)O[C@@H]2C)C[C@H](O)[C@@H]1O [Digoxin]
B-score binding assay [1, 6]: 2.8
Ranking score [2, 7]: 426.002
B-score functional assay [2, 8]: -1.822

CN(C)c1ccc(O)c2c1C[C@H]1C[C@H]3[C@H](N(C)C)C(O)=C(C(N)=O)C(=O)[C@@]3(O)C(O)=C1C2=O [Minocycline hydrochloride]
B-score binding assay [1, 3]: 0.626
B-score functional assay [2]: 0.089
Ranking score [2, 5]: 838.821

O=c1n(CCCN2CCN(c3cccc(Cl)c3)CC2)nc2ccccn12 [Trazodone hydrochloride]
B-score binding assay [1, 3]: -0.001
B-score functional assay [2, 4]: 0.169
Ranking score [2, 5]: 707.824

Cc1onc(-c2ccccc2)c1C(=O)N[C@@H]1C(=O)N2[C@@H]1SC(C)(C)[C@@H]2C(=O)[O-].[Na+] [Oxacillin sodium]
B-score binding assay [1, 9]: 0.083
B-score functional assay [2, 10]: 0.869
Ranking score [2, 11]: 869.572

NCCCCCC(=O)O [Aminocaproic acid]
B-score binding assay [1, 9]: 1.053
B-score functional assay [2, 10]: 1.656
Ranking score [2, 11]: 1108.16

Cl.O=C(O)/C=C/c1ccc(Cn2ccnc2)cc1 [Ozagrel hydrochloride]
B-score binding assay [1, 9]: 1.332
B-score functional assay [2, 10]: 1.392
Ranking score [2, 11]: 1118.41

CC(=O)c1ccc2c(c1)N(CCCN(C)C)c1ccccc1S2.O=C(O)/C=C\C(=O)O [Acetopromazine maleate salt]
B-score binding assay [1, 6]: -2.054
Ranking score [2, 7]: 331.723
B-score functional assay [2, 8]: 0.92

CC(O)(P(=O)([O-])O)P(=O)([O-])O.[Na+].[Na+] [Etidronic acid, disodium salt]
B-score binding assay [1, 3]: 0.806
B-score functional assay [2, 4]: -0.023
Ranking score [2, 5]: 776.081

COc1nc(C)nc(Cl)c1N=C1NCCN1 [Moxonidine]
B-score binding assay [1, 6]: -0.494
Ranking score [2, 7]: 427.083
B-score functional assay [2, 8]: -0.211

CCC[C@@H]1C[C@@H](C(=O)N[C@@H]([C@H]2O[C@H](SC)[C@H](O)[C@@H](O)[C@H]2O)[C@@H](C)O)N(C)C1 [Lincomycin hydrochloride]
B-score binding assay [1, 9]: 0.419
B-score functional assay [2, 10]: 0.903
Ranking score [2, 11]: 960.458

CC(CCc1ccccc1)NC(C)C(O)c1ccc(O)cc1 (centres unmarked) [Nylidrin]
B-score binding assay [1, 6]: -0.92
Ranking score [2, 7]: 363.793
B-score functional assay [2, 8]: -0.121

CCCc1cc(=O)[nH]c(=S)[nH]1 [Propylthiouracil]
B-score binding assay [1, 3]: 0.14
B-score functional assay [2, 4]: 0.437
Ranking score [2, 5]: 823.744

CC(=O)Nc1ccc(CC(=O)O)cc1 [Actarit]
B-score binding assay [1, 3]: 1.648
B-score functional assay [2, 4]: -0.304
Ranking score [2, 5]: 719.277

CN1C(=O)CC(c2ccccc2)C1=O (centres unmarked) [Phensuximide]
B-score binding assay [1, 6]: -1.044
Ranking score [2, 7]: 401.836
B-score functional assay [2, 8]: 0.043

COc1c(N2C[C@@H]3CCCN[C@@H]3C2)c(F)cc2c(=O)c(C(=O)O)cn(C3CC3)c12 [Moxifloxacin]
B-score binding assay [1, 6]: -1.402
Ranking score [2, 7]: 388.165
B-score functional assay [2, 8]: 0.4

CNC(=C[N+](=O)[O-])NCCSCc1csc(CN(C)C)n1 [Nizatidine]
B-score binding assay [1, 9]: 1.375
B-score functional assay [2, 10]: 0.271
Ranking score [2, 11]: 960.129

C1CCc2nnnn2CC1 [Pentylenetetrazole]
B-score binding assay [1, 3]: -0.037
B-score functional assay [2, 4]: 0.223
Ranking score [2, 5]: 696.951

C[C@]12CC[C@@H](O)C[C@H]1CC[C@@H]1[C@@H]2CC[C@]2(C)C(=O)CC[C@@H]12 [3-alpha-Hydroxy-5-beta-androstan-17-one]
B-score binding assay [1]: 0.051
B-score functional assay [2]: -2.764
Ranking score [2]: 235.83
